Measurements taken from patent US12433952B2, “Antibody-drug conjugates targeting folate receptor alpha and methods of use” (ZYMEWORKS BC INC., priority 2022, dated 2025).
Read-outs that look alike come from different tables or passages of the source.

Assays:
Assay in all cases: In vitro cytotoxicity of camptothecin analogues (CellTiter-Glo)
Assay type in all cases: cell-based
SK-BR-3 (breast cancer) = settings: Homo sapiens, SK-BR-3, 96 h, read-out: pIC50 SKBR-3 (converted)
Method: (§1) Cytotoxicity of the camptothecin analogues was assessed in vitro as follows.
(§2) In vitro potency was assessed on multiple cancer cell lines: SK-BR-3 (breast cancer), SKOV-3 (ovarian cancer), Calu-3 (lung cancer), ZR-75-1 (breast cancer) and MDA-MB-468 (breast cancer). Serial dilutions of camptothecin analogues were prepared in RPMI 1640+10% FBS, and 20 μL of each dilution was added to 384-well plates. Cells cultured in log-phase growth were detached by brief incubation in 0.05% Trypsin and resuspended in respective culturing media at 20,000 cells/mL (with the exception of ZR-75 cells, which were resuspended at 10,000 cells/mL). 50 μL of cell suspension was then added to the plates containing test articles. Cells were incubated with test articles for 4 d at 37° C. (with the exception of ZR-75 cells, which were incubated for 5 d). Growth inhibition was assessed by CellTiter-Glo® (Promega Corporation, Madison, WI) and luminescence was measured on a plate reader. IC50 values were determined by GraphPad Prism (GraphPad Software, San Diego CA).

Calu-3 (lung cancer) = settings: Homo sapiens, Calu-3, 96 h, read-out: pIC50 Calu-3 (converted)
Method: as §1, §2

ZR-75-1 (breast cancer) = settings: Homo sapiens, ZR-75-1, 120 h, read-out: pIC50 ZR-75 (converted)
Method: as §1, §2

[1] = tested on: MDA-MB-468 (breast cancer); settings: Homo sapiens, MDA-MB-468, 96 h, read-out: pIC50 MDA-MB-468 (converted)
Method: as §1, §2

SKOV-3 (ovarian cancer) = settings: Homo sapiens, SK-OV-3, 96 h, read-out: pIC50 SKOV-3 (converted)
Method: as §1, §2

| Compound | IC50 (SK-BR-3 (breast cancer); 4 d incubation) [nM] | IC50 (Calu-3 (lung cancer); 4 d incubation) [nM] | IC50 (ZR-75-1 (breast cancer); 5 d incubation) [nM] | IC50 ([1]; 4 d incubation) [nM] | IC50 (SKOV-3 (ovarian cancer); 4 d incubation) [nM] | IC50 (SK-BR-3 (breast cancer)) [nM] | IC50 (SKOV-3 (ovarian cancer)) [nM] | IC50 (Calu-3 (lung cancer)) [nM] | IC50 [1] [nM] | IC50 (ZR-75-1 (breast cancer)) [nM] |
| --- | --- | --- | --- | --- | --- | --- | --- | --- | --- | --- |
| CC[C@@]1(O)C(=O)OCc2c1cc1n(c2=O)Cc2c-1nc1cc(F)c(OC)cc1c2CNC(=O)NCCO [Compound 137, (S)-1-((4-ethyl-8-fluoro-4-hydroxy-9-methoxy-3,14-dioxo-3,4,12,14-tetrahydro-1H-pyrano[3′,4′:6,7]indolizino[1,2-b]quinolin-11-yl)methyl)-3-(2-hydroxyethyl)urea] | 17 | 63.1 | 18.6 | 28.2 | – | – | – | – | – | – |
| CC[C@@]1(O)C(=O)OCc2c1cc1n(c2=O)Cc2c-1nc1cc(F)c(N)cc1c2CNC(C)=O [Compound 147, (S)—N-((9-amino-4-ethyl-8-fluoro-4-hydroxy-3,14-dioxo-3,4,12,14-tetrahydro-1H-pyrano[3′,4′:6,7]indolizino[1,2-b]quinolin-11-yl)methyl)acetamide] | 5.13 | 21.4 | – | 21.4 | 43.7 | – | – | – | – | – |
| CC[C@@]1(O)C(=O)OCc2c1cc1n(c2=O)Cc2c-1nc1cc(F)c(C)cc1c2CN1CC(F)(CO)C1 [Compound 118, (S)-4-ethyl-8-fluoro-11-((3-fluoro-3-(hydroxymethyl)azetidin-1-yl)methyl)-4-hydroxy-9-methyl-1,12-dihydro-14H-pyrano[3′,4′:6,7]indolizino[1,2-b]quinoline-3,14(4H)-dione] | 1.51 | 0.933 | – | 1.86 | 1.45 | – | – | – | – | – |
| CC[C@@]1(O)C(=O)OCc2c1cc1n(c2=O)Cc2c-1nc1cc(F)c(C)cc1c2CN1CC2CC1(CO)CO2 (stereo partly drawn) [Compound 115, (4S)-4-ethyl-8-fluoro-4-hydroxy-11-((4-(hydroxymethyl)-2-oxa-5-azabicyclo[2.2.1]heptan-5-yl)methyl)-9-methyl-1,12-dihydro-14H-pyrano[3′,4′:6,7]indolizino[1,2-b]quinoline-3,14(4H)-dione] | 2.57 | 1.29 | – | 4.17 | 3.8 | – | – | – | – | – |
| CC[C@@]1(O)C(=O)OCc2c1cc1n(c2=O)Cc2c-1nc1cc(F)c(C)cc1c2CN1CCSCC1CO (stereo partly drawn) [Compound 114, (4S)-4-ethyl-8-fluoro-4-hydroxy-11-((3-(hydroxymethyl)thiomorpholino)methyl)-9-methyl-1,12-dihydro-14H-pyrano[3′,4′:6,7]indolizino[1,2-b]quinoline-3,14(4H)-dione] | – | – | – | – | – | 0.107 | 0.178 | 0.0933 | 0.417 | – |
| CC[C@@]1(O)C(=O)OCc2c1cc1n(c2=O)Cc2c-1nc1cc(F)c(OC)cc1c2CNC(=O)NCc1ccc(N)cc1 [Compound 135, (S)-1-(4-aminobenzyl)-3-((4-ethyl-8-fluoro-4-hydroxy-9-methoxy-3,14-dioxo-3,4,12,14-tetrahydro-1H-pyrano[3′,4′:6,7]indolizino[1,2-b]quinolin-11-yl)methyl)urea] | – | – | – | – | – | 12.3 | – | – | 10.7 | 13.2 |
| CC[C@@]1(O)C(=O)OCc2c1cc1n(c2=O)Cc2c-1nc1cc(F)c(C)cc1c2CN1CCS(=O)(=O)CC1CO (stereo partly drawn) [Compound 116, (4S)-4-ethyl-8-fluoro-4-hydroxy-11-((3-(hydroxymethyl)-1,1-dioxidothiomorpholino)methyl)-9-methyl-1,12-dihydro-14H-pyrano[3′,4′:6,7]indolizino[1,2-b]quinoline-3,14(4H)-dione] | 7.08 | 0.794 | – | 9.33 | 12.6 | – | – | – | – | – |
| CC[C@@]1(O)C(=O)OCc2c1cc1n(c2=O)Cc2c-1nc1cc(F)c(OC)cc1c2CN1CCN(C)CC1 [Compound 107, (S)-4-ethyl-8-fluoro-4-hydroxy-9-methoxy-11-((4-methylpiperazin-1-yl)methyl)-1,12-dihydro-14H-pyrano[3′,4′:6,7]indolizino[1,2-b]quinoline-3,14(4H)-dione] | 3.09 | 4.07 | 2.75 | 3.89 | – | – | – | – | – | – |
| CC[C@@]1(O)C(=O)OCc2c1cc1n(c2=O)Cc2c-1nc1cc(F)c(N)cc1c2CN1CCCCC1 [Compound 148, (S)-9-amino-4-ethyl-8-fluoro-4-hydroxy-11-(piperidin-1-ylmethyl)-1,12-dihydro-14H-pyrano[3′,4′:6,7]indolizino[1,2-b]quinoline-3,14(4H)-dione] | 0.324 | 0.204 | 0.219 | 0.204 | – | – | – | – | – | – |
| CC[C@@]1(O)C(=O)OCc2c1cc1n(c2=O)Cc2c-1nc1cc(F)c(C)cc1c2CN1C2CCC1(CO)CC2 [Compound 121, (S)-4-ethyl-8-fluoro-4-hydroxy-11-((1-(hydroxymethyl)-7-azabicyclo[2.2.1]heptan-7-yl)methyl)-9-methyl-1,12-dihydro-14H-pyrano[3′,4′:6,7]indolizino[1,2-b]quinoline-3,14(4H)-dione] | – | – | – | – | – | 0.148 | 0.195 | 0.145 | 0.269 | – |
| CC[C@@]1(O)C(=O)OCc2c1cc1n(c2=O)Cc2c-1nc1cc(F)c(C)cc1c2CNS(N)(=O)=O [Compound 131, (S)—N-((4-ethyl-8-fluoro-4-hydroxy-9-methyl-3,14-dioxo-3,4,12,14-tetrahydro-1H-pyrano[3′,4′:6,7]indolizino[1,2-b]quinolin-11-yl)methyl)methanesulfamide] | – | – | – | – | – | 1.05 | – | 9.12 | 9.12 | 0.955 |
| CC[C@@]1(O)C(=O)OCc2c1cc1n(c2=O)Cc2c-1nc1cc(F)c(OC)cc1c2CNS(=O)(=O)CCO [Compound 130, (S)—N-((4-ethyl-8-fluoro-4-hydroxy-9-methoxy-3,14-dioxo-3,4,12,14-tetrahydro-1H-pyrano[3′,4′:6,7]indolizino[1,2-b]quinolin-11-yl)methyl)-2-hydroxyethane-1-sulfonamide] | 14.8 | 1.66 | – | 6.46 | 24 | – | – | – | – | – |
| CC[C@@]1(O)C(=O)OCc2c1cc1n(c2=O)Cc2c-1nc1cc(F)c(N)cc1c2CN=[N+]=[N-] [Compound 152, (S)-9-amino-11-(azidomethyl)-4-ethyl-8-fluoro-4-hydroxy-1,12-dihydro-14H-pyrano[3′,4′:6,7]indolizino[1,2-b]quinoline-3,14(4H)-dione] | – | – | – | – | – | 3.24 | 2.88 | 1.48 | 5.01 | – |
| CC[C@@]1(O)C(=O)OCc2c1cc1n(c2=O)Cc2c-1nc1cc(F)c(C)cc1c2CN1CC2CC(C1)C2O (stereo partly drawn) [Compound 117, (4S)-4-ethyl-8-fluoro-4-hydroxy-11-((6-hydroxy-3-azabicyclo[3.1.1]heptan-3-yl)methyl)-9-methyl-1,12-dihydro-14H-pyrano[3′,4′:6,7]indolizino[1,2-b]quinoline-3,14(4H)-dione] | 0.0955 | 0.162 | – | 0.468 | 0.17 | – | – | – | – | – |
| CC[C@@]1(O)C(=O)OCc2c1cc1n(c2=O)Cc2c-1nc1cc(F)c(C)cc1c2CN1CCC(F)(F)C(CO)C1 (stereo partly drawn) [Compound 120, (4S)-11-((4,4-difluoro-3-(hydroxymethyl)piperidin-1-yl)methyl)-4-ethyl-8-fluoro-4-hydroxy-9-methyl-1,12-dihydro-14H-pyrano[3′,4′:6,7]indolizino[1,2-b]quinoline-3,14(4H)-dione] | 1.1 | 0.1 | – | 0.191 | 0.251 | – | – | – | – | – |
| CC[C@@]1(O)C(=O)OCc2c1cc1n(c2=O)Cc2c-1nc1cc(F)c(C)cc1c2CN1CC(CO)C1 [Compound 119, (S)-4-ethyl-8-fluoro-4-hydroxy-11-((3-(hydroxymethyl)azetidin-1-yl)methyl)-9-methyl-1,12-dihydro-14H-pyrano[3′,4′:6,7]indolizino[1,2-b]quinoline-3,14(4H)-dione] | 4.17 | 1.17 | – | 2.75 | 3.72 | – | – | – | – | – |
| CC[C@@]1(O)C(=O)OCc2c1cc1n(c2=O)Cc2c-1nc1cc(F)c(N)cc1c2CN1CCN(S(=O)(=O)c2ccccc2)CC1 [Compound 153, (S)-9-amino-4-ethyl-8-fluoro-4-hydroxy-11-((4-(phenylsulfonyl)piperazin-1-yl)methyl)-1,12-dihydro-14H-pyrano[3′,4′:6,7]indolizino[1,2-b]quinoline-3,14(4H)-dione] | 0.513 | 0.115 | – | – | 0.933 | – | – | – | – | – |
| CC[C@@]1(O)C(=O)OCc2c1cc1n(c2=O)Cc2c-1nc1cc(F)c(C)cc1c2CNS(=O)(=O)Cc1ccc([N+](=O)[O-])cc1 [Compound 124, (S)—N-((4-ethyl-8-fluoro-4-hydroxy-9-methyl-3,14-dioxo-3,4,12,14-tetrahydro-1H-pyrano[3′,4′:6,7]indolizino[1,2-b]quinolin-11-yl)methyl)-1-(4-nitrophenyl) methanesulfonamide] | 1.2 | 1.7 | 2.29 | 3.47 | – | – | – | – | – | – |
